# Experimental data from US20180320217A1, “METHODS FOR SAMPLING AND MEASURING ORAL LAVAGE PROTEINS” (The Procter & Gamble Company, priority 2017, published 2018).
# Several values for one entry are separate records, joined by “and”; a condition that tells them apart may be missing. Identical values can stand only once.
# Tests used:
# [1] = Formation of formazan dyes: control buffer, malate and 1-Methoxy PMS (TABLE 22); assay type: biochemical
# oral lavage [2] = assay: Formation of formazan dyes: oral lavage, malate and 1-Methoxy PMS (TABLE 20); assay type: biochemical, human
# [3] = Formation of formazan dyes: NADH and 1-methoxy PMS, absence of malate (TABLE 15); assay type: biochemical
# oral lavage [4] = assay: Formation of formazan dyes: oral lavage and 1-Methoxy PMS, absence of malate (TABLE 19); assay type: biochemical, human
# Malate dehydrogenase = target: T1, Malate dehydrogenase (Sus scrofa, UniProt P00346); assay: Formation of formazan dyes: Malate dehydrogenase and 1-Methoxy PMS, absence of malate (TABLE 17); assay type: biochemical, pig heart; design: L-malate dehydrogenase (pig heart); purchased Sigma-Aldrich 10127248001 / 10127914001
# T1 sequence (P00346 25-338): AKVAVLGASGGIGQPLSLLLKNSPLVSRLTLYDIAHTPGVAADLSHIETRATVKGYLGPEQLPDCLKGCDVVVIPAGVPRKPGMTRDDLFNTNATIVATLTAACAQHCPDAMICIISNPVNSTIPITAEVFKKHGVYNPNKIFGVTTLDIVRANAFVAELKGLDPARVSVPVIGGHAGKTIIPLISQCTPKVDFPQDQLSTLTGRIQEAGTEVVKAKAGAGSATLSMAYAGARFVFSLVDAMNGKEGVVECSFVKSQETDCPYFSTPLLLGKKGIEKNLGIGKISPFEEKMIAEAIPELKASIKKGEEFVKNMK
# [5] = system: Malate dehydrogenase and diaphorase; assay: Formation of formazan dyes: Malate dehydrogenase, diaphorase and malate (TABLE 10); assay type: biochemical, pig heart
# diaphorase [6] = assay: Formation of formazan dyes: NADH, diaphorase and malate (TABLE 8); assay type: biochemical, Clostridium kluyveri
# [7] = system: Malate dehydrogenase and diaphorase; assay: Formation of formazan dyes: Malate dehydrogenase and diaphorase, absence of malate (TABLE 9); assay type: biochemical, pig heart
# [8] = Formation of formazan dyes: control buffer and 1-Methoxy PMS, absence of malate (TABLE 21); assay type: biochemical
# oral lavage [9] = assay: Formation of formazan dyes: oral lavage, malate and diaphorase (TABLE 12); assay type: biochemical, human
# diaphorase [10] = assay: Formation of formazan dyes: NADH and diaphorase, absence of malate (TABLE 7); assay type: biochemical, Clostridium kluyveri
# oral lavage [11] = assay: Formation of formazan dyes: oral lavage and diaphorase, not malate (TABLE 11); assay type: biochemical, human
structure (smiles),measurement,setting,value
"COc1cc(-c2ccc(-n3nc(-c4ccccc4)n[n+]3-c3ccc([N+](=O)[O-])cc3)c(OC)c2)ccc1-n1nc(-c2ccccc2)n[n+]1-c1ccc([N+](=O)[O-])cc1 [Nitro-TB, 3,3′-[3,3′-Dimethoxy-(1,1′-biphenyl)-4,4′-diyl]-bis[2-(4-nitrophenyl)-5-phenyl-2H-tetrazolium chloride]",Means absorbance 0 h,[1],0.16
same,Means absorbance 1 h,[1],0.16
same,Means absorbance 2 h,[1],0.17
same,Means absorbance 3 h,[1],0.19
same,Means absorbance 4 h,[1],0.19
same,Means absorbance 6 h,[1],0.24
same,Means absorbance 8 h,[1],0.29
same,Means absorbance 10 h,[1],0.18
same,Means absorbance 12 h,[1],0.23
same,"Absorbance, formation of formazan dyes (Means)",oral lavage [2],0.35 and 0.37 and 0.40 and 0.43 and 0.29 and 0.30 and 0.31
same,formation of formazan dyes / precipitates with 1-methoxy PMS and NADH,[3],formed precipitates
same,"Absorbance, formation of formazan dyes (Means)",oral lavage [4],0.52 and 0.58 and 0.61 and 0.63 and 0.60 and 0.68 and 0.73 and 0.82
same,"Absorbance, formation of formazan dyes (Means)",Malate dehydrogenase,0.31 and 0.40 and 0.39 and 0.35 and 0.36 and 0.32 and 0.41
same,"Formation of formazan dyes, absorbance, Means 0 h",[5],0.56
same,"Formation of formazan dyes, absorbance, Means 1 h",[5],0.88
same,"Formation of formazan dyes, absorbance, Means 2 h",[5],1.08
same,"Formation of formazan dyes, absorbance, Means 3 h",[5],1.23
same,"Formation of formazan dyes, absorbance, Means 4 h",[5],1.46
same,"Formation of formazan dyes, absorbance, Means 6 h",[5],1.73
same,"Formation of formazan dyes, absorbance, Means 8 h",[5],1.95
same,"Formation of formazan dyes, absorbance, Means 10 h",[5],2.16
same,"Formation of formazan dyes, absorbance, Means 12 h",[5],2.35
same,conversion to reduced formazan dyes,[5],converted to reduced formazan dyes in a time-dependent manner
same,"Formation of formazan dyes, absorbance, Means 0 h",diaphorase [6],1.03
same,"Formation of formazan dyes, absorbance, Means 1 h",diaphorase [6],1.15
same,"Formation of formazan dyes, absorbance, Means 2 h",diaphorase [6],1.16
same,"Formation of formazan dyes, absorbance, Means 3 h",diaphorase [6],1.17
same,"Formation of formazan dyes, absorbance, Means 4 h",diaphorase [6],1.22
same,"Formation of formazan dyes, absorbance, Means 6 h",diaphorase [6],1.27
same,"Formation of formazan dyes, absorbance, Means 8 h",diaphorase [6],1.33
same,"Formation of formazan dyes, absorbance, Means 10 h",diaphorase [6],1.37
same,"Formation of formazan dyes, absorbance, Means 12 h",diaphorase [6],1.42
same,"Formation of formazan dyes, absorbance, Means 0 h",[7],0.15
same,"Formation of formazan dyes, absorbance, Means 1 h",[7],0.20
same,"Formation of formazan dyes, absorbance, Means 2 h",[7],0.23
same,"Formation of formazan dyes, absorbance, Means 3 h",[7],0.25
same,"Formation of formazan dyes, absorbance, Means 4 h",[7],0.36
same,"Formation of formazan dyes, absorbance, Means 6 h",[7],0.39
same,"Formation of formazan dyes, absorbance, Means 8 h",[7],0.40
same,"Formation of formazan dyes, absorbance, Means 10 h",[7],0.41
same,"Formation of formazan dyes, absorbance, Means 12 h",[7],0.42
same,reduction of tetrazolium dye in the absence of substrate malate,[7],remained largely in oxidized forms
same,"Absorbance, formation of formazan dyes (Means)",[8],0.33 and 0.41 and 0.42 and 0.44 and 0.39 and 0.45 and 0.43
same,"Formation of formazan dyes, absorbance, Means 0 h",oral lavage [9],0.52
same,"Formation of formazan dyes, absorbance, Means 1 h",oral lavage [9],0.75
same,"Formation of formazan dyes, absorbance, Means 2 h",oral lavage [9],0.80
same,"Formation of formazan dyes, absorbance, Means 3 h",oral lavage [9],0.75
same,"Formation of formazan dyes, absorbance, Means 4 h",oral lavage [9],0.88
same,"Formation of formazan dyes, absorbance, Means 6 h",oral lavage [9],1.00
same,"Formation of formazan dyes, absorbance, Means 8 h",oral lavage [9],1.09
same,"Formation of formazan dyes, absorbance, Means 10 h",oral lavage [9],1.20
same,"Formation of formazan dyes, absorbance, Means 12 h",oral lavage [9],1.30
same,"Formation of formazan dyes, absorbance, Means 0 h",diaphorase [10],1.49
same,"Formation of formazan dyes, absorbance, Means 1 h",diaphorase [10],1.71
same,"Formation of formazan dyes, absorbance, Means 2 h",diaphorase [10],1.73
same,"Formation of formazan dyes, absorbance, Means 3 h",diaphorase [10],1.71
same,"Formation of formazan dyes, absorbance, Means 4 h",diaphorase [10],1.74
same,"Formation of formazan dyes, absorbance, Means 6 h",diaphorase [10],1.86
same,"Formation of formazan dyes, absorbance, Means 8 h",diaphorase [10],1.83
same,"Formation of formazan dyes, absorbance, Means 10 h",diaphorase [10],1.85
same,"Formation of formazan dyes, absorbance, Means 12 h",diaphorase [10],1.82
same,"Formation of formazan dyes, absorbance, Means 0 h",oral lavage [11],0.56
same,"Formation of formazan dyes, absorbance, Means 1 h",oral lavage [11],0.79
same,"Formation of formazan dyes, absorbance, Means 2 h",oral lavage [11],0.85
same,"Formation of formazan dyes, absorbance, Means 3 h",oral lavage [11],0.81
same,"Formation of formazan dyes, absorbance, Means 4 h",oral lavage [11],0.88
same,"Formation of formazan dyes, absorbance, Means 6 h",oral lavage [11],0.87
same,"Formation of formazan dyes, absorbance, Means 8 h",oral lavage [11],0.88
same,"Formation of formazan dyes, absorbance, Means 10 h",oral lavage [11],0.86
same,"Formation of formazan dyes, absorbance, Means 12 h",oral lavage [11],0.87
same,reduction to formazan dyes by pooled oral lavage,oral lavage [11],changed to formazan dyes in a significant amount
